Experimental data published in PMC12006171, “Marsupial cathelicidins: characterization, antimicrobial activity and evolution in this unique mammalian lineage” (Frontiers in Immunology, 2025).
≈ marks a conversion by molar mass, not a printed value. Read-outs that look alike come from different tables or passages of the source. Where a SMILES comes first, the peptide text is derived from it.

Experiments:
[1] = test system: Pseudomonas aeruginosa clinical isolate - animal; assay: microbe, parasite or virus in culture; type: cell-based; conditions: read-out: MIC P. aeruginosa
Procedure: (§1) Antimicrobial testing of 78 cathelicidin MPs was performed in two phases as outlined in Figure 1 . In phase I, 40 peptides (27 extant and 13 ancestral) were selected for testing based on rank (outlined above) and similarity to published marsupial cathelicidins with known antimicrobial activity ([33], [41]–[43]). These peptides were tested against nine bacteria (Staphylococcus aureus ATCC 29213 and clinical isolate, Escherichia coli ATCC 25922 and clinical isolate, Pseudomonas aeruginosa ATCC 27853 and clinical isolate, Streptococcus agalactiae ATCC 12386 and clinical isolate, Streptococcus pneumoniae ATCC 49619) and three fungi (Candida krusei ATCC 6258, Candida parapsilosis ATCC 22019, and Candida albicans clinical isolate). Details regarding these strains are available in Supplementary Table 4 . The antimicrobial activity of cathelicidins was determined as the minimum inhibitory concentration (MIC), which was the lowest concentration of cathelicidin that prevented visible bacterial or fungal growth, relative to the negative control. […] Minimum bactericidal concentration (MBC) and/or minimum fungicidal concentration (MFC) was conducted to determine microbicidal versus static action. Activity against S. aureus ATCC, E. coli ATCC, and Pseudomonas aeruginosa ATCC 27853 was examined in the presence of divalent cations to determine the impact of inhibitors.
(§2) In phase II, the remaining 38 peptides (37 extant and one ancestral) were tested against six bacteria (S. aureus ATCC and clinical isolate, E. coli ATCC and clinical isolate, and P. aeruginosa ATCC and clinical isolate). […] No further testing on phase II peptides was performed. Detailed methods for all assays are provided in subsequent sections.
(§3) Antimicrobial activity was determined using a broth microdilution susceptibility assay in 96 well polypropylene plates according to Clinical Laboratory Standards Institute guidelines M07-A and M26A as described previously ([33], [42], [43]). The bacterial and fungal isolates from humans and animals used in this study are outlined in Supplementary Table 4 . Only yeasts were included in the panel of fungi as they have been used in the susceptibility testing of eutherian ([3], [81]–[83]) and other marsupial cathelicidins previously ([33], [42], [43]). Cathelicidin mature peptides were solubilized in DMSO and serially diluted in duplicate from 128-0.25μg/mL in a final volume of 100µL. For bacteria, cathelicidins were diluted in Mueller Hinton Broth (MHB) with or without 10% lysed horse blood, and with (MH II B) or without (MHB) calcium and magnesium cations. For fungi, cathelicidins were diluted in Roswell Park Memorial Institute medium (RPMI)-1640 MOPS. Ampicillin or tetracycline were included as a positive control for Gram-positive and -negative bacteria respectively, while amphotericin B was used for fungi. A media-only negative control and growth control (no cathelicidin) were also included on each plate. Bacteria were sub-cultured on Muller Hinton agar (MHA) or sheep blood agar (BA), and fungi on Sabouraud dextrose agar (SAB), 20–24 hours prior to the test. Colonies were suspended in saline, the concentration adjusted to a 0.5 McFarland standard, and then diluted in media to a concentration of 1.0 x 10^6 cells/mL. Then, 100μL was added to each well of the cathelicidin dilution plate, giving a final inoculum density of 5 x 10^5 CFU/mL and cathelicidin concentration of 64-0.125μg/mL. Colony counts were performed on MHA/BA/SAB to confirm inoculum density. All plates were incubated at 35°C for 20–24 hours, depending on the strain.
(§4) Colonies were counted and compared to the colony count of the starting inoculum.

[2] = test system: Escherichia coli clinical isolate - animal; assay: microbe, parasite or virus in culture; type: cell-based
Procedure: as §1, §2, §3, §4

[3] = test system: Pseudomonas aeruginosa ATCC 27853; assay: microbe, parasite or virus in culture; type: cell-based; conditions: read-out: MIC P. aeruginosa ATCC
Procedure: as §1, §2, §3, §4

[4] = test system: Staphylococcus aureus clinical isolate - animal; assay: microbe, parasite or virus in culture; type: cell-based; conditions: read-out: MIC S. aureus
Procedure: as §1, §2, §3, §4

[5] = test system: Escherichia coli ATCC 25922; assay: microbe, parasite or virus in culture; type: cell-based
Procedure: as §1, §2, §3, §4

[6] = test system: Staphylococcus aureus ATCC 29213; assay: microbe, parasite or virus in culture; type: cell-based; conditions: read-out: MIC S. aureus ATCC
Procedure: as §1, §2, §3, §4

[7] = test system: six bacteria (S. aureus, E. coli, P. aeruginosa; ATCC and clinical isolate); parameters: method as in 4 sources, ref Peel et al 2016 ||| ref Peel et al 2021 ||| ref Wang et al 2011 ||| ref Peel et al 2017; conditions: cited from earlier work
[8] = test system: three fungi (Candida krusei, Candida parapsilosis, Candida albicans); parameters: method as in 4 sources, ref Peel et al 2016 ||| ref Peel et al 2021 ||| ref Wang et al 2011 ||| ref Peel et al 2017; conditions: cited from earlier work
[9] = clinical isolate, µM equivalent of Table 3
[10] = mature peptide (MP), Y/N summary, ref Peel et al 2017
[11] = mature peptide, Y/N summary from earlier study, ref Peel et al 2021
[12] = mature peptide, Y/N summary from earlier study, ref Peel et al 2017
[13] = mature peptide, Y/N summary from earlier study, ref Peel et al 2016
[14] = mature peptide, Y/N summary from earlier study, ref Wang et al 2011

## CC[C@H](C)[C@H](NC(=O)[C@H](CO)NC(=O)[C@H](CCCNC(=N)N)NC(=O)[C@H](CCCNC(=N)N)NC(=O)[C@@H]1CCCN1C(=O)[C@H](CCCNC(=N)N)NC(=O)[C@@H]1CCCN1C(=O)[C@H](Cc1ccccc1)NC(=O)[C@@H]1CCCN1C(=O)[C@H](Cc1ccccc1)NC(=O)CNC(=O)[C@@H]1CCCN1C(=O)[C@H](CCCNC(=N)N)NC(=O)[C@@H]1CCCN1C(=O)[C@H](Cc1ccccc1)NC(=O)[C@@H]1CCCN1C(=O)[C@H](Cc1ccccc1)NC(=O)CNC(=O)[C@@H]1CCCN1C(=O)[C@H](CCCNC(=N)N)NC(=O)[C@@H]1CCCN1C(=O)[C@H](Cc1ccccc1)NC(=O)[C@H](CO)NC(=O)[C@@H]1CCCN1C(=O)[C@H](CCCNC(=N)N)NC(=O)[C@@H]1CCCN1C(=O)[C@H](CCCNC(=N)N)NC(=O)[C@@H]1CCCN1C(=O)[C@H](CCCNC(=N)N)NC(=O)[C@@H]1CCCN1C(=O)[C@H](CC(C)C)NC(=O)[C@H](Cc1ccc(O)cc1)NC(=O)[C@@H]1CCCN1C(=O)[C@H](CCCNC(=N)N)NC(=O)[C@H](CCCNC(=N)N)NC(=O)[C@H](CCC(=O)O)NC(=O)[C@H](CCCNC(=N)N)NC(=O)[C@@H](N)CCCNC(=N)N)C(=O)O [MyfaCath3] (H-RRERRPYLPRPRPRPSFPRPGFPFPRPGFPFPRPRRSI-OH)
[1]; clinical isolate - animal
  MIC: >13.6 µM
[2]; clinical isolate - animal
  MBC E. coli: 3.4 µM (≈ 16 µg/mL)
  MIC E. coli: 3.4 µM (≈ 16 µg/mL)
[3]; ATCC 27853
  MIC: >13.6 µM
[4]; clinical isolate - animal
  MIC: >13.6 µM
[5]; ATCC 25922
  MBC E. coli ATCC: 1.7 µM (≈ 7.99 µg/mL)
  MIC E. coli ATCC: 1.7 µM (≈ 7.99 µg/mL)
[6]; ATCC 29213
  MIC: >13.6 µM

## CC[C@H](C)[C@H](NC(=O)[C@H](C)NC(=O)[C@H](CC(N)=O)NC(=O)[C@H](CCCCN)NC(=O)[C@@H](NC(=O)[C@@H](NC(=O)[C@H](CC(N)=O)NC(=O)[C@H](CCCCN)NC(=O)[C@@H](NC(=O)[C@H](CCCCN)NC(=O)[C@H](CC(=O)O)NC(=O)CNC(=O)[C@H](C)NC(=O)[C@H](CCCNC(=N)N)NC(=O)[C@H](CCCCN)NC(=O)[C@H](CC(C)C)NC(=O)[C@H](Cc1ccccc1)NC(=O)[C@H](CC(N)=O)NC(=O)[C@H](CCCCN)NC(=O)[C@H](Cc1ccccc1)NC(=O)[C@H](CCCCN)NC(=O)[C@H](CCC(=O)O)NC(=O)[C@H](Cc1ccccc1)NC(=O)[C@@H](NC(=O)[C@H](CCCNC(=N)N)NC(=O)[C@H](CC(C)C)NC(=O)[C@H](CCCCN)NC(=O)[C@H](CCCCN)NC(=O)[C@@H](NC(=O)[C@H](CC(N)=O)NC(=O)[C@H](CCC(=O)O)NC(=O)[C@@H]1CCCN1C(=O)[C@@H](N)CCCNC(=N)N)[C@@H](C)CC)C(C)C)[C@@H](C)CC)[C@@H](C)O)[C@@H](C)CC)C(=O)N[C@@H](CC(N)=O)C(=O)N[C@@H](CC(N)=O)C(=O)N[C@@H](CC(C)C)C(=O)N[C@@H](Cc1ccccc1)C(=O)N[C@@H](CO)C(=O)O [PeguCath3] (H-RPENIKKLRVFEKFKNFLKRAGDKIKNTIKNAINNLFS-OH)
[1]; clinical isolate - animal
  MIC: >14.1 µM
[2]; clinical isolate - animal
  MIC: >14.1 µM
[3]; ATCC 27853
  MIC: >14.1 µM
[4]; clinical isolate - animal
  MIC: >14.1 µM
[5]; ATCC 25922, read-out: MIC E. coli ATCC
  MIC: 14.1 µM (≈ 63.9 µg/mL)
[6]; ATCC 29213
  MIC: >14.1 µM

## CC[C@H](C)[C@H](NC(=O)[C@H](CO)NC(=O)[C@H](CCCNC(=N)N)NC(=O)CNC(=O)[C@@H]1CCCN1C(=O)[C@H](CCCNC(=N)N)NC(=O)[C@@H]1CCCN1C(=O)[C@H](CCCNC(=N)N)NC(=O)[C@@H]1CCCN1C(=O)[C@H](CCCNC(=N)N)NC(=O)[C@@H]1CCCN1C(=O)[C@H](Cc1ccccc1)NC(=O)[C@H](CC(N)=O)NC(=O)[C@@H]1CCCN1C(=O)[C@H](CCCNC(=N)N)NC(=O)[C@@H]1CCCN1C(=O)[C@H](Cc1ccccc1)NC(=O)[C@H](CCCNC(=N)N)NC(=O)[C@@H]1CCCN1C(=O)[C@H](CCCNC(=N)N)NC(=O)[C@@H]1CCCN1C(=O)[C@H](CC(C)C)NC(=O)[C@H](Cc1ccc(O)cc1)NC(=O)[C@@H]1CCCN1C(=O)[C@H](CCCNC(=N)N)NC(=O)[C@H](CCCNC(=N)N)NC(=O)[C@@H](NC(=O)[C@H](CCCNC(=N)N)NC(=O)[C@H](CCCNC(=N)N)NC(=O)[C@H](C)NC(=O)[C@H](C)NC(=O)[C@H](CC(C)C)NC(=O)[C@H](CC(C)C)NC(=O)CN)[C@@H](C)CC)C(=O)O [SmcrCath12] (H-GLLAARRIRRPYLPRPRFPRPNFPRPRPRPGRSI-OH)
[1]; [9]
  MIC: >15.6 µM
[2]; clinical isolate, value in brackets, µM equivalent of Table 3
  MBC E. coli: 3.9 µM
[2]; [9]
  MIC E. coli: 3.9 µM
[3]; µM equivalent of Table 3
  MIC: >15.6 µM
[4]; [9]
  MIC: >15.6 µM
[5]; value in brackets, µM equivalent of Table 3
  MBC E. coli ATCC: 1.9 µM
[5]; µM equivalent of Table 3
  MIC E. coli ATCC: 1.9 µM
[6]; µM equivalent of Table 3
  MIC: >15.6 µM

## APVTPAPPGFTTSSKKKGKKKLPYTVIFGRTDFP [ModoCath3]
[7]; [10]
  Antibacterial (MIC <64ug/mL): N (Peel et al 2017) (Antibacterial (MIC <64ug/mL))
[8]; [10]
  Antifungal (MIC <64ug/mL): N (Peel et al 2017) (Antifungal (MIC <64ug/mL))

## ASSGIIDTSSLPPKIRQIYNQAVYDTLVGILRNF [PhciCath6]
[7]; [11]
  Antibacterial (MIC <64ug/mL): N (Peel et al 2021) (Antibacterial (MIC <64ug/mL))
[8]; [11]
  Antifungal (MIC <64ug/mL): N (Peel et al 2021) (Antifungal (MIC <64ug/mL))

## GEKVKTRFIAAIEKLIDTFLP [MaeuCath3]
[7]; [12]
  Antibacterial (MIC <64ug/mL): N (Peel et al 2017) (Antibacterial (MIC <64ug/mL))
[8]; [12]
  Antifungal (MIC <64ug/mL): N (Peel et al 2017) (Antifungal (MIC <64ug/mL))

## GIKHILFMAKTKLPRATCTAEIKENCDRKK [SahaCath1]
[7]; [13]
  Antibacterial (MIC <64ug/mL): N (Peel et al 2016) (Antibacterial (MIC <64ug/mL))
[8]; [13]
  Antifungal (MIC <64ug/mL): N (Peel et al 2016) (Antifungal (MIC <64ug/mL))

## IKIFIPKGFYKGIQLVNEIIKENNERQKQKP [ModoCath12]
[7]; [10]
  Antibacterial (MIC <64ug/mL): N (Peel et al 2017) (Antibacterial (MIC <64ug/mL))
[8]; [10]
  Antifungal (MIC <64ug/mL): N (Peel et al 2017) (Antifungal (MIC <64ug/mL))

## KDILKNNNIIILPGSNEK [OranCath1]
[7]; mature peptide (MP), Y/N summary, ref Wang et al 2011
  Antibacterial (MIC <64ug/mL): Y (Wang et al 2011) (Antibacterial (MIC <64ug/mL))

## KREDFLDQIIRDFRNFIYQKYRRLRDEFRKLRDILSG [SahaCath4]
[7]; [13]
  Antibacterial (MIC <64ug/mL): N (Peel et al 2016) (Antibacterial (MIC <64ug/mL))
[8]; [13]
  Antifungal (MIC <64ug/mL): N (Peel et al 2016) (Antifungal (MIC <64ug/mL))

## KRGFGKKLRKRLKKFRNSIKKRLKNFNVVIPIPLPG [MaeuCath1]
[7]; [14]
  Antibacterial (MIC <64ug/mL): Y (Wang et al 2011) (Antibacterial (MIC <64ug/mL))
[8]; [14]
  Antifungal (MIC <64ug/mL): Y (Wang et al 2011) (Antifungal (MIC <64ug/mL))

## KRGLWESLKRKATKLGDDIRNTLRNFKIKFPVPRQG [MaeuCath2*]
[7]; [14]
  Antibacterial (MIC <64ug/mL): Y (Wang et al 2011) (Antibacterial (MIC <64ug/mL))
[8]; [14]
  Antifungal (MIC <64ug/mL): Y (Wang et al 2011) (Antifungal (MIC <64ug/mL))

## KRGLWESLKRKVTKLGDDIRNTLRNFKIKFPVPRQG [MaeuCath7]
[7]; [12]
  Antibacterial (MIC <64ug/mL): Y (Peel et al 2017) (Antibacterial (MIC <64ug/mL))
[8]; [12]
  Antifungal (MIC <64ug/mL): N (Peel et al 2017) (Antifungal (MIC <64ug/mL))
